In experiment [1] the target is Histone deacetylase 1 (Homo sapiens) (UniProt Q13547). The experiment in a line: Inhibition of HDAC1.
A further experiment deals with HCT-116. Kind of experiment: Growth inhibition of human HCT116 cells after 72 hrs. It is filed as functional.

Sequence of Histone deacetylase 1 (Homo sapiens) (Q13547 whole entry): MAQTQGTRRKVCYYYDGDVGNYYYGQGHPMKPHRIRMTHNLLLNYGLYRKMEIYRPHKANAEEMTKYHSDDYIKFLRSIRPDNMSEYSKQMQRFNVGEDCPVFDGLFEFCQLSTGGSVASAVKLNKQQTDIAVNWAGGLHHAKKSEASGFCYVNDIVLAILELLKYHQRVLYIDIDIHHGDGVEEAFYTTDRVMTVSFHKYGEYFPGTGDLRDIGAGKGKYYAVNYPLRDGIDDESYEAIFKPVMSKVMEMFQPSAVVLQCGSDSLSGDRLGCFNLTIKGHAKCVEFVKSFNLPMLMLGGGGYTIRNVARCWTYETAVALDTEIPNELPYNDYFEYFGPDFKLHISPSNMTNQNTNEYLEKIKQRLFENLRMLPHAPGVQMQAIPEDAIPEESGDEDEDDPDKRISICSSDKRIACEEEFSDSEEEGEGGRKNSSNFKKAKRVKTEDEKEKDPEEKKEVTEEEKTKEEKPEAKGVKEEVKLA

`CN1CCN(C(C(=O)NCc2ccccc2)c2ccc3cc(C(=O)Nc4ccccc4N)sc3c2)CC1` (stereo not drawn): the Inflection point is 110 nM in experiment [1] and 430 nM with HCT-116.

Take `CN1CCN(C(Cc2ccc(C(=O)Nc3ccccc3N)cc2)C(=O)Nc2ccc(Cl)cc2)CC1` (stereo not drawn): the Inflection point was determined as 310 nM in experiment [1] and 370 nM with HCT-116.

With `Nc1ccccc1NC(=O)c1cc2ccc(C(NCCc3ccccc3)C(=O)NCc3ccccc3)cc2s1` (stereo not drawn), the Inflection point in experiment [1] worked out at 70 nM.

Molecule `Nc1ccccc1NC(=O)c1cc2ccc(C(NCCc3ccncc3)C(=O)NCc3ccccc3)cc2s1` (stereo not drawn) registered an Inflection point in experiment [1] of 39 nM.

`Nc1ccccc1NC(=O)c1cc2ccc(C(C(=O)NCc3ccccc3)N3CCN(C(=O)OCc4ccccc4)CC3)cc2s1` (stereo not drawn) registered an Inflection point in experiment [1] of 470 nM.

Molecule `COCCNC(C(=O)NCc1ccccc1)c1ccc2cc(C(=O)Nc3ccccc3N)sc2c1` (stereo not drawn) had an Inflection point in experiment [1] of 170 nM.

Molecule `COc1ccc(CNC(C(=O)Nc2ccc(OC)cc2)c2ccc3cc(C(=O)Nc4ccccc4N)sc3c2)cc1` (stereo not drawn) registered an Inflection point in experiment [1] of 90 nM.

For the molecule `COc1ccc(NC(=O)C(NC(=O)Cc2ccccc2)c2ccc(C(=O)Nc3ccccc3N)cc2)cc1` (stereo not drawn), the Inflection point in experiment [1] came to 870 nM; with HCT-116, 6400 nM.

`CN1CCN(C(Cc2ccc(C(=O)Nc3ccccc3N)cc2)C(=O)Nc2ccc3ccccc3c2)CC1` (stereo not drawn): the Inflection point in experiment [1] was found to be 37 nM; in the experiment on HCT-116, 220 nM.

`Cc1ccc(NC(=O)C(c2ccc3cc(C(=O)Nc4ccccc4N)sc3c2)N2CCN(C)CC2)cc1` (single isomer, unassigned; enantiomer 1) [listing 1 of 2 here] registered an Inflection point in experiment [1] of 21 nM.

Turning to `Nc1ccccc1NC(=O)c1cc2ccc(C(NCCO)C(=O)NCc3ccccc3)cc2s1` (stereo not drawn), in experiment [1], the Inflection point was 150 nM.

`Cc1ccc(NC(=O)C(c2ccc3cc(C(=O)Nc4ccccc4N)sc3c2)N2CCN(C)CC2)cc1` (racemic) [listing 1 of 2 here] registered an Inflection point in the experiment on HCT-116 of 240 nM.

In turn, `Nc1ccccc1NC(=O)c1cc2ccc(C(C(=O)NCc3ccccc3)N3CCN(CCc4ccccc4)CC3)cc2s1` (stereo not drawn) displayed an Inflection point in experiment [1] of 180 nM.

`Nc1ccccc1NC(=O)c1cc2ccc(C(C(=O)NCc3ccccc3)N3CCN(c4ccccc4)CC3)cc2s1` (stereo not drawn) gave an Inflection point in experiment [1] of 150 nM.

Regarding `Cc1ccc(NC(=O)C(c2ccc3cc(C(=O)Nc4ccccc4N)sc3c2)N2CCN(C)CC2)cc1` (single isomer, unassigned; enantiomer 1) [listing 2 of 2 here], the Inflection point with HCT-116 worked out at 130 nM.

Molecule `Nc1ccccc1NC(=O)c1cc2ccc(C(NCCc3ccccn3)C(=O)NCc3ccccc3)cc2s1` (stereo not drawn) registered an Inflection point in experiment [1] of 110 nM.

Turning to `Cc1ccc(NC(=O)C(c2ccc3cc(C(=O)Nc4ccccc4N)sc3c2)N2CCN(C)CC2)cc1` (racemic) [listing 2 of 2 here], the Inflection point in experiment [1] came to 25 nM.

For the molecule `COc1ccc(NC(=O)C(NCCc2ccncc2)c2ccc3cc(C(=O)Nc4ccccc4N)sc3c2)cc1` (stereo not drawn), the Inflection point in experiment [1] stood at 32 nM.

With `CN(C)CCNC(C(=O)NCc1ccccc1)c1ccc2cc(C(=O)Nc3ccccc3N)sc2c1` (stereo not drawn), in experiment [1], the Inflection point worked out at 150 nM.

`COc1ccc(NC(=O)C(NC2CCCCC2)c2ccc3cc(C(=O)Nc4ccccc4N)sc3c2)cc1` (stereo not drawn) returned an Inflection point in experiment [1] of 74 nM.

As to `CCN1CCN(C(C(=O)NCc2ccccc2)c2ccc3cc(C(=O)Nc4ccccc4N)sc3c2)CC1` (stereo not drawn), the Inflection point was determined as 80 nM in experiment [1] and 490 nM in the experiment with HCT-116.

As to `CN1CCN(C(C(=O)Nc2ccc3ccccc3c2)c2ccc(C(=O)Nc3ccccc3N)cc2)CC1` (stereo not drawn), the Inflection point was found to be 360 nM in experiment [1] and 640 nM with HCT-116.

Molecule `COc1ccc(NC(=O)C(NCCc2ccccc2)c2ccc3cc(C(=O)Nc4ccccc4N)sc3c2)cc1` (stereo not drawn) displayed an Inflection point in experiment [1] of 71 nM.

In experiment [1], `COc1ccc(NC(=O)C(NCc2ccccc2)c2ccc3cc(C(=O)NO)sc3c2)cc1` (stereo not drawn) yielded an Inflection point of 4 nM.

`Cc1ccc(NC(=O)C(c2ccc3cc(C(=O)Nc4ccccc4N)sc3c2)N2CCN(C)CC2)cc1` (single isomer, unassigned; enantiomer 2) [listing 1 of 2 here] registered an Inflection point in the experiment with HCT-116 of 560 nM.

Molecule `COc1ccc(NC(=O)C(NCc2ccccc2)c2ccc3cc(C(=O)Nc4ccccc4N)sc3c2)cc1` (stereo not drawn) returned an Inflection point in experiment [1] of 79 nM.

On to `Cc1ccc(NC(=O)C(c2ccc3cc(C(=O)Nc4ccccc4N)sc3c2)N2CCN(C)CC2)cc1` (single isomer, unassigned; enantiomer 2) [listing 2 of 2 here], for which, in experiment [1], the Inflection point stood at 18 nM.

`COc1ccc(NC(=O)C(c2ccc3cc(C(=O)Nc4ccccc4N)sc3c2)N2CCN(C)CC2)cc1` (stereo not drawn): the Inflection point in experiment [1] was determined as 43 nM; in the experiment on HCT-116, 410 nM.

For the molecule `Nc1ccccc1NC(=O)c1ccc(C(NC(=O)Cc2ccccc2)C(=O)Nc2ccc3ccccc3c2)cc1` (stereo not drawn), the Inflection point in experiment [1] was 170 nM; in the experiment on HCT-116, 2700 nM.

In experiment [1], `CN1CCN(C(C(=O)Nc2ccc(Cl)cc2)c2ccc(C(=O)Nc3ccccc3N)cc2)CC1` (stereo not drawn) returned an Inflection point of 6200 nM.

On to `CC(C)(C)OC(=O)N1CCN(C(C(=O)NCc2ccccc2)c2ccc3cc(C(=O)Nc4ccccc4N)sc3c2)CC1` (stereo not drawn), for which the Inflection point in experiment [1] came to 260 nM.

In turn, `Nc1ccccc1NC(=O)c1ccc(C(C(=O)Nc2ccc3ccccc3c2)N2CCN(c3ccccc3)CC2)cc1` (stereo not drawn) returned an Inflection point in experiment [1] of 620 nM.

Take `Nc1ccccc1NC(=O)c1ccc(C(NC(=O)CCc2ccccc2)C(=O)Nc2ccc3ccccc3c2)cc1` (stereo not drawn): the Inflection point in experiment [1] worked out at 250 nM; with HCT-116, 2700 nM.

On to `Cc1ccc(NC(=O)C(NC(=O)CCc2ccccc2)c2ccc(C(=O)Nc3ccccc3N)cc2)cc1` (stereo not drawn), for which the values for the Inflection point (in experiment [1]; with HCT-116) were 340 nM and 3000 nM, respectively.

In experiment [1], `Nc1ccccc1NC(=O)c1cc2ccc(C(NCCc3ccccc3)C(=O)NCCN3CCOCC3)cc2s1` (stereo not drawn) displayed an Inflection point of 230 nM.

Regarding `Nc1ccccc1NC(=O)c1cc2ccc(C(NCCc3ncc[nH]3)C(=O)NCc3ccccc3)cc2s1` (stereo not drawn), the Inflection point in experiment [1] came out at 520 nM.

Regarding `CN1CCN(C(C(=O)Nc2ccc(Cl)cc2)c2ccc3cc(C(=O)Nc4ccccc4N)sc3c2)CC1` (stereo not drawn), the Inflection point in experiment [1] turned out to be 62 nM; in the experiment on HCT-116 it was 340 nM.

In experiment [1], `Nc1ccccc1NC(=O)c1ccc(C(C(=O)Nc2ccc3ccccc3c2)N2CCN(CCc3ccccc3)CC2)cc1` (stereo not drawn) returned an Inflection point of 680 nM.

With `Nc1ccccc1NC(=O)c1cc2ccc(C(C(=O)NCc3ccccc3)N3CCN(C/C=C/c4ccccc4)CC3)cc2s1` (stereo not drawn), the Inflection point in experiment [1] turned out to be 230 nM.

For the molecule `COc1ccc(NC(=O)C(NC(=O)CCc2ccccc2)c2ccc(C(=O)Nc3ccccc3N)cc2)cc1` (stereo not drawn), the Inflection point was 260 nM in experiment [1] and 2800 nM with HCT-116.

The molecule `Nc1ccccc1NC(=O)c1cc2ccc(C(NCc3cccnc3)C(=O)NCc3ccccc3)cc2s1` (stereo not drawn) came in with an Inflection point in experiment [1] of 180 nM.

For the molecule `CN1CCN(C(C(=O)Nc2ccc3ccccc3c2)c2ccc3cc(C(=O)Nc4ccccc4N)sc3c2)CC1` (stereo not drawn), the Inflection point worked out at 25 nM in experiment [1] and 580 nM with HCT-116.

As for `CN1CCN(C(C(=O)NCc2ccccc2)c2ccc(C(=O)Nc3ccccc3N)cc2)CC1` (stereo not drawn), the Inflection point in experiment [1] was determined as 860 nM.

For the molecule `Cc1ccc(NC(=O)C(NC(=O)Cc2ccccc2)c2ccc(C(=O)Nc3ccccc3N)cc2)cc1` (stereo not drawn), the results for the Inflection point (in experiment [1]; in the experiment with HCT-116) were 690 nM and 8100 nM, respectively.

The record behind these values is ChEMBL document CHEMBL1140793, “Amino acid derivatives as histone deacetylase inhibitors” (2008).
